Assay: HILIC, Waters ACQUITY UPLC BEH Amide, 100 × 2.1 mm, 1.7 µm; A: water + 0.125% formic acid + 10 mM ammonium formate; B: 5% water + 95% acetonitrile + 0.125% formic acid + 10 mM ammonium formate; gradient (min/%B) 0/100 2/100 7.7/70 9.5/40 10.25/30 12.75/100 17/100
Conditions: stereoisomer not certain

Compound	LC retention time
Cc1cn(C2OC(CO)C(O)C2O)c(=O)[nH]c1=O (stereo unspecified) [5-Methyluridine]	4.19 min
CCCCCCCCCOc1ccc2[nH]cc(CCN)c2c1 [5-Nonyloxytryptamine]	3.4 min
Nc1ccc2cn[nH]c2c1 [6-Aminoindazole]	1.26 min
O=c1cnn(C2OC(CO)C(O)C2O)c(=O)[nH]1 (stereo unspecified) [6-Azuridine]	4.31 min
O=C(O)CCCCCO [6-Hydroxycaproic acid]	1.34 min
O=c1cc(-c2ccccc2)oc2ccc(O)cc12 [6-Hydroxyflavone]	1.26 min
CC(C)=CCCC(C)O (stereo unspecified) [6-Methyl-5-hepten-2-ol]	7.3 min
CNc1ncnc2c1ncn2C1OC(CO)C(O)C1O (stereo unspecified) [6-Methyladenosine]	3.56 min
CSc1ncnc2nc[nH]c12 [6-Methylmercaptopurine]	1.49 min
CC(O)C(O)C1=Nc2c(nc(N)[nH]c2=O)NC1 (stereo unspecified) [7,8-Dihydrobiopterin]	7.18 min
Cn1c[n+](C2OC(CO)C(O)C2O)c2nc(N)nc([O-])c21 (stereo unspecified) [7-Methylguanosine]	7.34 min
O=[N+]([O-])c1cccc2cn[nH]c12 [7-Nitroindazole]	1.03 min
Nc1ncnc2c1[nH]c(=O)n2C1CC(O)C(CO)O1 (stereo unspecified) [8-Oxo-2-deoxyadenosine]	5.11 min
CC12CCC3c4ccc(O)cc4CCC3C1CC(OC1OC(C(=O)O)C(O)C(O)C1O)C2O (stereo unspecified) [16-Glucuronide-estriol]	6.49 min
O=C(O)CC1C(=O)Nc2ccccc21 (stereo unspecified) [(2-oxo-2,3-dihydro-1H-indol-3-yl)acetic acid]	2.02 min
CCCC(=O)OC(CC(=O)[O-])C[N+](C)(C)C [(R)-Butyrylcarnitine]	5.77 min
CN1C(=O)CCC1c1ccc[n+]([O-])c1 [(S)-Cotinine N-oxide]	3.87 min
CN(C)C(N)=NCCCC(N)C(=O)O (stereo unspecified) [ADMA]	8.55 min
CCCCCC=CCC=CCC=CCC=CCCCC(=O)Nc1ccc(O)cc1 [AM 404]	0.97 min
CC(C)C1=CC2=CCC3C(C)(C(=O)O)CCCC3(C)C2CC1 (stereo unspecified) [Abietic acid]	1.11 min
CC(C=CC1(O)C(C)=CC(=O)CC1(C)C)=CC(=O)O (stereo unspecified) [Abscisic acid]	1.33 min
CC1OC(OC2C(CO)OC(OC3C(CO)OC(O)C(O)C3O)C(O)C2O)C(O)C(O)C1NC1C=C(CO)C(O)C(O)C1O (stereo unspecified) [Acarbose]	9.88 min
CC(=O)Nc1ccc(OC2OC(C(=O)O)C(O)C(O)C2O)cc1 (stereo unspecified) [Acetaminophen glucuronide]	7.73 min

Compound	LC retention time
CC(=O)Nc1ccc(O)cc1 [Acetaminophen]	1.37 min
CC(=O)Nc1ccccc1 [Acetanilide]	1.11 min
CC(=O)NO [Acetohydroxamic acid]	2.94 min
CC(=O)OC(CC(=O)[O-])C[N+](C)(C)C (stereo unspecified) [Acetylcarnitine]	7.19 min
CC(=O)N1C(=O)C(=O)c2ccccc21 [Acetylisatin]	2.4 min
Cc1c2oc3c(C)ccc(C(=O)NC4C(=O)NC(C(C)C)C(=O)N5CCCC5C(=O)N(C)CC(=O)N(C)C(C(C)C)C(=O)OC4C)c3nc-2c(C(=O)NC2C(=O)NC(C(C)C)C(=O)N3CCCC3C(=O)N(C)CC(=O)N(C)C(C(C)C)C(=O)OC2C)c(N)c1=O (stereo unspecified) [Actinomycin D]	1.03 min
CC(=O)Nc1ccc(CC(=O)O)cc1 [Actrarit]	1.58 min
Nc1ncnc2nc[nH]c12 [Adenine]	4.71 min
Nc1ncnc2c1ncn2C1OC2COP(=O)(O)OC2C1O (stereo unspecified) [Adenosine 3',5'-cyclic monophosphate]	7.62 min
Nc1ncnc2c1ncn2C1OC(COP(=O)(O)O)C(O)C1O (stereo unspecified) [Adenosine 5'-monophosphate]	8.88 min
Nc1ncnc2c1ncn2C1OC(CO)C(OP(=O)(O)O)C1O (stereo unspecified) [Adenosine-3-monophosphate]	8.88 min
Nc1ncnc2c1ncn2C1OC(CO)C(O)C1O (stereo unspecified) [Adenosine]	4.77 min
CC12CC(=O)C3C(CCC4=CC(=O)CCC43C)C1CCC2=O (stereo unspecified) [Adrenosterone]	1.1 min
NCCCCN=C(N)N [Agmatine]	8.92 min
CC(N)C(=O)NC(C)C(=O)O (stereo unspecified) [Ala-Ala]	8.41 min
CC(N)C(=O)NC(CCC(N)=O)C(=O)O (stereo unspecified) [Ala-Gln]	9.11 min
CCC(C)C(NC(=O)C(C)N)C(=O)O (stereo unspecified) [Ala-Ile]	7.83 min
CC(C)CC(NC(=O)C(C)N)C(=O)O (stereo unspecified) [Ala-Leu]	7.6 min
CC(N)C(=O)NC(C(=O)O)C(C)C (stereo unspecified) [Ala-Val]	7.66 min
CC(N)C(=O)O (stereo unspecified) [Alanine]	8.05 min
CCCSc1ccc2nc(NC(=O)OC)[nH]c2c1 [Albendazole]	1.22 min
CC(C)(C)NCC(O)c1ccc(O)c(CO)c1 (stereo unspecified) [Albuterol]	5.55 min
COc1cc2nc(N(C)CCCNC(=O)C3CCCO3)nc(N)c2cc1OC (stereo unspecified) [Alfuzosin]	4.29 min

Compound	LC retention time
NC(=O)NC(NC(N)=O)C(=O)O [Allantoic acid]	8.56 min
Cc1[nH]cnc1CN1CCc2c(c3ccccc3n2C)C1=O [Alosetron]	4.19 min
Cc1nnc2n1-c1ccc(Cl)cc1C(c1ccccc1)=NC2 [Alprazolam]	1.34 min
O=C(c1ccc(F)cc1)C1CCN(CCn2c(=S)[nH]c3ccccc3c2=O)CC1 [Altanserin]	2.64 min
NC12CC3CC(CC(C3)C1)C2 [Amantadine]	4.88 min
NC(N)=NC(=O)c1nc(Cl)c(N)nc1N [Amiloride]	5.52 min
CCCCc1oc2ccccc2c1C(=O)c1cc(I)c(OCCN(CC)CC)c(I)c1 [Amiodarone]	1.87 min
CCN1CCCC1CNC(=O)c1cc(S(=O)(=O)CC)c(N)cc1OC (stereo unspecified) [Amisulpride]	2.76 min
CC(C)c1ccc2oc3nc(N)c(C(=O)O)cc3c(=O)c2c1 [Amlexanox]	1.81 min
CCOC(=O)C1=C(COCCN)NC(C)=C(C(=O)OC)C1c1ccccc1Cl (stereo unspecified) [Amlodipine]	4.24 min
CC(N)Cc1ccccc1 (stereo unspecified) [Amphetamine]	4.6 min
CCOC(=O)OC(C)OC1=C(C(=O)Nc2ccccn2)N(C)S(=O)(=O)c2ccccc21 (stereo unspecified) [Ampiroxicam]	0.95 min
O=C1CN2Cc3c(ccc(Cl)c3Cl)N=C2N1 [Anagrelide]	1.82 min
CC(C)(C#N)c1cc(Cn2cncn2)cc(C(C)(C)C#N)c1 [Anastrozole]	0.98 min
CC12CCC3C(CCC4CC(O)CCC43C)C1CCC2O (stereo unspecified) [Androstane-3,17-diol]	0.96 min
CC12CCC3C(CCC4=CC(=O)CCC43C)C1CCC2=O (stereo unspecified) [Androstenedione]	1.09 min
CC12CCC3C(CCC4CC(O)CCC43C)C1CCC2=O (stereo unspecified) [Androsterone]	4.62 min
Cn1cncc1CC(NC(=O)CCN)C(=O)O (stereo unspecified) [Anserine]	9.49 min
CCCCCC=CCC=CCC=CCC=CCCCC(=O)NCCc1ccc(O)c(O)c1 [Arachidonyl dopamine]	1.14 min
CC(NC(=O)C(N)CCCN=C(N)N)C(=O)O (stereo unspecified) [Arg-Ala]	9.66 min
NC(N)=NCCCC(N)C(=O)NCC(=O)O (stereo unspecified) [Arg-Gly]	9.85 min
NC(N)=NCCCC(N)C(=O)N1CCCC1C(=O)O (stereo unspecified) [Arg-Pro]	9.51 min
NC(N)=NCCCC(N)C(=O)NC(CO)C(=O)O (stereo unspecified) [Arg-Ser]	9.9 min

Compound	LC retention time
CC(C)C(NC(=O)C(N)CCCN=C(N)N)C(=O)O (stereo unspecified) [Arg-Val]	9.3 min
CC1CNc2c(cccc2S(=O)(=O)NC(CCCN=C(N)N)C(=O)N2CCC(C)CC2C(=O)O)C1 (stereo unspecified) [Argatroban]	5.45 min
NC(N)=NCCCC(N)C(=O)O (stereo unspecified) [Arginine]	9.53 min
O=C1CCc2ccc(OCCCCN3CCN(c4cccc(Cl)c4Cl)CC3)cc2N1 [Aripiprazole]	3.14 min
O=C1OC(C(O)CO)C(O)=C1O (stereo unspecified) [Ascorbic acid]	1.44 min
NC(CC(=O)O)C(=O)NC(CCC(=O)O)C(=O)O (stereo unspecified) [Asp-Glu]	9.47 min
NC(CC(=O)O)C(=O)NC(Cc1ccccc1)C(=O)O (stereo unspecified) [Asp-Phe]	8.14 min
NC(=O)CC(N)C(=O)O (stereo unspecified) [Asparagine]	8.81 min
NC(CC(=O)O)C(=O)O (stereo unspecified) [Aspartic acid]	9.33 min
CNCCC(Oc1ccccc1C)c1ccccc1 (stereo unspecified) [Atomoxetine]	2.42 min
CN1C2CCC1CC(OC(=O)C(CO)c1ccccc1)C2 (stereo unspecified) [Atropine]	4.32 min
CN1C(=O)COc2c(C(=O)NC3CN4CCC3CC4)cc(Cl)cc21 (stereo unspecified) [Azasetron]	4.66 min
CN1CCCC(n2nc(Cc3ccc(Cl)cc3)c3ccccc3c2=O)CC1 (stereo unspecified) [Azelastine]	2.95 min
O=C(O)CCNC(=O)c1ccc(N=Nc2ccc(O)c(C(=O)O)c2)cc1 [Balsalazide]	4.85 min
CC1CC2C3CCC4=CC(=O)C=CC4(C)C3(Cl)C(O)CC2(C)C1(O)C(=O)CO (stereo unspecified) [Beclomethasone]	1.26 min
CCN(CC)CCOC(=O)C(O)(c1ccccc1)c1ccccc1 [Benactyzine]	2.16 min
CCOC(=O)C(CCc1ccccc1)NC1CCc2ccccc2N(CC(=O)O)C1=O (stereo unspecified) [Benazepril]	1.33 min
COC(=O)C1=C(C)NC(C)=C(C(=O)OC2CCCN(Cc3ccccc3)C2)C1c1cccc([N+](=O)[O-])c1 (stereo unspecified) [Benidipine]	1.46 min
CC(COc1ccccc1Cc1ccccc1)N1CCCCC1 (stereo unspecified) [Benproperine]	1.99 min
NC(=O)c1ccccc1 [Benzamide]	1.27 min
c1ccc2scnc2c1 [Benzothiazole]	1.11 min
CN1C2CCC1C(C(=O)O)C(OC(=O)c1ccccc1)C2 (stereo unspecified) [Benzoylecgonine]	3.63 min
